Several values for one entry are separate records, joined by “and”; a condition that tells them apart may be missing. Identical values can stand only once. Toxic doses and inconclusive results are not listed. How the source made its calls: active means survival T/C of 150% or more; inactive means T/C below 125% in these data.
Tested on: P388 leukemia ip, CD2F1 mice, survival T/C
Test: NCI In Vivo Anticancer Drug Screen. Data for tumor model P388 Leukemia (intraperitoneal) in CD2F1 (CDF1) mice
Conditions: endpoint: median survival time, higher = longer survival
Summary of the method: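 Mice carrying the transplanted tumor received test compound or vehicle. Survival was recorded in each group, and the value is the treated-group measurement divided by that of the vehicle-treated control group.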

[1] = dose: 50.0 mg/kg/injection, schedule: Q01DX009 (ip), vehicle: Klucel (hydroxypropylcellulose) (HPC)
[2] = dose: 100.0 mg/kg/injection, schedule: Q01DX009 (ip), vehicle: Klucel (hydroxypropylcellulose) (HPC)
[3] = dose: 200.0 mg/kg/injection, schedule: Q01DX009 (ip), vehicle: Klucel (hydroxypropylcellulose) (HPC)

Measured: T/C

N/C(=C\c1nc2ccccc2nc1-c1ccccc1)c1ccccc1Cl
inactive: dose: 60.0 mg/kg/injection, schedule: Q01DX005 (ip), vehicle: Klucel (hydroxypropylcellulose) (HPC) 100 % of control | dose: 120.0 mg/kg/injection, schedule: Q01DX005 (ip), vehicle: Klucel (hydroxypropylcellulose) (HPC) 91 % of control

O=C1C=C2CCCCCCCCC(C1)C2 (centres undefined)
inactive: dose: 50.0 mg/kg/injection, schedule: Q01DX005 (ip), vehicle: Klucel (hydroxypropylcellulose) (HPC) 99 % of control | dose: 100.0 mg/kg/injection, schedule: Q01DX005 (ip), vehicle: Klucel (hydroxypropylcellulose) (HPC) 96 % of control | dose: 200.0 mg/kg/injection, schedule: Q01DX005 (ip), vehicle: Klucel (hydroxypropylcellulose) (HPC) 89 % of control

C=CCCn1ccnc1[N+](=O)[O-]
inactive: dose: 12.5 mg/kg/injection, schedule: Q01DX009 (ip), vehicle: water 94 % of control | dose: 25.0 mg/kg/injection, schedule: Q01DX009 (ip), vehicle: water 93 % of control | dose: 50.0 mg/kg/injection, schedule: Q01DX009 (ip), vehicle: water 100 % of control

CS(=O)(=O)O/C=C1\C(=O)OC2CCCCC12 (centres undefined)
inactive: dose: 18.8 mg/kg/injection, schedule: Q01DX009 (ip), vehicle: distilled water + Tween-80 108 % of control | dose: 37.5 mg/kg/injection, schedule: Q01DX009 (ip), vehicle: distilled water + Tween-80 107 % of control and 116 % of control | dose: 75.0 mg/kg/injection, schedule: Q01DX009 (ip), vehicle: distilled water + Tween-80 116 % of control and 118 % of control | dose: 150.0 mg/kg/injection, schedule: Q01DX009 (ip), vehicle: distilled water + Tween-80 120 % of control

NNC(=O)c1cnn(-c2ccccc2)c1N
inactive: dose: 15.0 mg/kg/injection, schedule: Q01DX005 (ip), vehicle: saline with Tween-80 99 % of control | dose: 30.0 mg/kg/injection, schedule: Q01DX005 (ip), vehicle: saline with Tween-80 93 % of control | dose: 60.0 mg/kg/injection, schedule: Q01DX005 (ip), vehicle: saline with Tween-80 99 % of control and 94 % of control

CCO/C=N/NC(=O)c1n[nH]c2ccccc12
inactive: dose: 50.0 mg/kg/injection, schedule: Q01DX005 (ip), vehicle: saline with Tween-80 106 % of control | dose: 100.0 mg/kg/injection, schedule: Q01DX005 (ip), vehicle: saline with Tween-80 100 % of control | dose: 200.0 mg/kg/injection, schedule: Q01DX005 (ip), vehicle: saline with Tween-80 106 % of control

c1cc[n+](CC[n+]2ccccn2)nc1
inactive: dose: 12.5 mg/kg/injection, schedule: Q01DX001 (ip), vehicle: saline 108 % of control and 111 % of control and 95 % of control | dose: 25.0 mg/kg/injection, schedule: Q01DX001 (ip), vehicle: saline 100 % of control (2×) and 122 % of control | dose: 50.0 mg/kg/injection, schedule: Q01DX001 (ip), vehicle: saline 100 % of control and 101 % of control and 92 % of control

COC1OCC(NC(=O)CNC(=O)CCCCCCCCCCCCC(C)C)C(O)C1O (centres undefined)
inactive: dose: 6.25 mg/kg/injection, schedule: Q01DX009 (ip), vehicle: distilled water + Tween-80 100 % of control | dose: 12.5 mg/kg/injection, schedule: Q01DX009 (ip), vehicle: distilled water + Tween-80 93 % of control | dose: 25.0 mg/kg/injection, schedule: Q01DX009 (ip), vehicle: distilled water + Tween-80 99 % of control | dose: 50.0 mg/kg/injection, schedule: Q01DX009 (ip), vehicle: distilled water + Tween-80 104 % of control | dose: 100.0 mg/kg/injection, schedule: Q01DX009 (ip), vehicle: distilled water + Tween-80 104 % of control | dose: 200.0 mg/kg/injection, schedule: Q01DX009 (ip), vehicle: distilled water + Tween-80 108 % of control

CCCCCCC1(/C=C\c2ccccc2Cl)OCCO1
inactive: [1] 103 % of control | [2] 94 % of control | [3] 108 % of control

C1CC1c1nn[nH]n1
inactive: [1] 109 % of control | [2] 110 % of control | [3] 107 % of control

O=C1NN2CCN=C2c2cnccc21
inactive: dose: 100.0 mg/kg/injection, schedule: Q04DX002 (ip), vehicle: saline 98 % of control | dose: 200.0 mg/kg/injection, schedule: Q04DX002 (ip), vehicle: saline 93 % of control | dose: 400.0 mg/kg/injection, schedule: Q04DX002 (ip), vehicle: saline 92 % of control

CCCCN(CCCC)CCC(=O)c1ccc(OC)c2ccccc12
inactive: dose: 12.5 mg/kg/injection, schedule: Q01DX009 (ip), vehicle: saline with Tween-80 110 % of control | dose: 25.0 mg/kg/injection, schedule: Q01DX009 (ip), vehicle: saline with Tween-80 119 % of control | dose: 50.0 mg/kg/injection, schedule: Q01DX009 (ip), vehicle: saline with Tween-80 111 % of control

Source: PubChem BioAssay AID330 (DTP/NCI, 2004)
